The results in this text go back to patent US9708336B2, “Metallo-beta-lactamase inhibitors” (priority 2014, dated 2017).

pIC50: −log10 of the molar value. Like-named read-outs stand apart in the source and are kept apart here. A value given as a limit tells only on which side of the number the result lay.

For orientation: pIC50 means the negative decadic logarithm of the IC50, by convention in mol/L.

For test [1], the target named is IMP-1 (Serratia marcescens, UniProt P52699). In words: biochemical. Particulars: IMP-1 enzyme, CCF2-FA fluorescence assay; read-out: IMP-1 IC50. Format: biochemical.
Sequence of IMP-1 (P52699 whole entry, looked up): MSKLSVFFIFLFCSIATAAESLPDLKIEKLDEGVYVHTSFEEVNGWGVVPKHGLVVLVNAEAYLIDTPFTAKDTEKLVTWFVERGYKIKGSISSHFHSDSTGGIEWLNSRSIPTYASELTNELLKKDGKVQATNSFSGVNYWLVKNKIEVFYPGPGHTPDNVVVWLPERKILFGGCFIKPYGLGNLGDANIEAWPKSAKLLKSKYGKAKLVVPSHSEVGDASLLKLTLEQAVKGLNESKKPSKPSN
Test [2] deals with Escherichia coli expressing NDM-1 (CLB30016). Kind of test: Antibiotic potentiation activity: synergistic concentration (MITC95) with imipenem, OD600 growth. Format: cell-based. Particulars: Escherichia coli expressing NDM-1 (CLB30016), 95% growth inhibition. The method, boiled down:
(§1)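 Each strain, suspended in saline from overnight colonies and diluted 1:100 into 1.1× CAMHB, is dosed with imipenem at 4 μg/ml (or 1 μg/ml) plus compound, incubated 22–24 h at 35 °C and read by absorbance.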

In test [3] the test system is Klebsiella pneumoniae expressing VIM-1 (IHMA599644). The description is as above. The format is cell-based. To be noted: Klebsiella pneumoniae expressing VIM-1 (IHMA599644), 95% growth inhibition. The method, boiled down: as §1
Test [4] relates to Serratia marcescens expressing IMP-1 (CL5741). Described as above. Particulars: Serratia marcescens expressing IMP-1 (CL5741), 95% growth inhibition. The format is cell-based. The method, boiled down: as §1
Test [5] addresses VIM-1 (Pseudomonas aeruginosa (strain ATCC 15692 / DSM 22644 / CIP 104116 / JCM 14847 / LMG 12228 / 1C / PRS 101 / PAO1), UniProt A0A0F7KYQ8). Kind of test: Enzyme activity: determination of IC50, fluorescence assay with CCF2-FA substrate (VIM-1). To be noted: CCF2-FA fluorescence assay. Format: biochemical.
Test [6] concerns the target NDM-1 (Klebsiella pneumoniae, UniProt C7C422). Kind of test: biochemical. Particulars: NDM-1 enzyme, CCF2-FA fluorescence assay; read-out: NDM-1 IC50. The format is biochemical.
[7] abbreviates: VIM-1 enzyme, read-out: VIM-1 IC50.

Sequence of NDM-1 (C7C422 whole entry, looked up, species assumed): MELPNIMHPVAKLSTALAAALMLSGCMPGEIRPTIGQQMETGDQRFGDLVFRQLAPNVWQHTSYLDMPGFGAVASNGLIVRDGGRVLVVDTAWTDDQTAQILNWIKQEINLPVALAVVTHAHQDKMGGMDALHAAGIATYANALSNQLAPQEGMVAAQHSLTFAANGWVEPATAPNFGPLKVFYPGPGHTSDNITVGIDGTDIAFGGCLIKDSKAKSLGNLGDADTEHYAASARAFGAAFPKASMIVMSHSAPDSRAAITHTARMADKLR

With `NS(=O)(=O)c1cccc(-c2ccc(CN3CCOCC3)cc2)c1-c1nnn[nH]1` [Example 341, 4′-(morpholin-4-ylmethyl)-2-(1H-tetrazol-5-yl)biphenyl-3-sulfonamide], the negative-log IC50 (pIC50) in test [1] is 7.66; in test [5] (setting [7]) it was 6.10; in test [6], 8.53. Further, the “Escherichia coli MITC95” value in test [2] worked out at 0.7813 µM. Moreover, the “Klebsiella pneumoniae MITC95” value in test [3] was above 200 µM. The “Serratia marcescens MITC95” value in test [4] came out at 1.172 µM.
As to `NS(=O)(=O)c1cccc(-c2ccc(CN3CNC(=O)C3)cc2)c1-c1nnn[nH]1` [Example 342, 4′-[(4-oxoimidazolidin-1-yl)methyl]-2-(1H-tetrazol-5-yl)biphenyl-3-sulfonamide], the pIC50 is 7.34 in test [1], 7.09 in test [5] (setting [7]) and 8.33 in test [6]. For the same compound, the “Escherichia coli MITC95” value in test [2] amounted to 3.125 µM. The “Klebsiella pneumoniae MITC95” value in test [3] turned out to be 25 µM. Moreover, the “Serratia marcescens MITC95” value in test [4] was determined as 0.7813 µM.
For the compound `NS(=O)(=O)c1cccc(-c2ccc(CN3CCC(C(=O)O)C3)cc2)c1-c1nnn[nH]1` (stereo not drawn) [Example 343, 1-{[3′-sulfamoyl-2′-(1H-tetrazol-5-yl)biphenyl-4-yl]methyl}pyrrolidine-3-carboxylic acid], the pIC50 was 6.43 in test [1], 5.93 in test [5] (setting [7]) and 7.61 in test [6]. Moreover, the “Escherichia coli MITC95” value in test [2] worked out at 1.563 µM. The “Klebsiella pneumoniae MITC95” value in test [3] was 100 µM. For the same compound, the “Serratia marcescens MITC95” value in test [4] is 9.375 µM.
Regarding `CC(CC(=O)O)NCc1ccc(-c2cccc(S(N)(=O)=O)c2-c2nnn[nH]2)cc1` (stereo not drawn) [Example 344, 3-({[3′-sulfamoyl-2′-(1H-tetrazol-5-yl)biphenyl-4-yl]methyl}amino)butanoic acid], the pIC50 in test [1] is 6.62; in test [5] (setting [7]), 6.23; in test [6], 7.48. For the same compound, the “Escherichia coli MITC95” value in test [2] amounted to 2.344 µM. For the same compound, the “Klebsiella pneumoniae MITC95” value in test [3] was found to be 100 µM. Further, the “Serratia marcescens MITC95” value in test [4] turned out to be 4.688 µM.
`CC1(C)CCN(Cc2ccc(-c3cccc(S(N)(=O)=O)c3-c3nnn[nH]3)cc2)C1` [Example 346, 4′-[(3,3-dimethylpyrrolidin-1-yl)methyl]-2-(1H-tetrazol-5-yl)biphenyl-3-sulfonamide]: the pIC50 is 6.63 in test [1], 6.39 in test [5] (setting [7]) and 7.93 in test [6]. In test [2], the “Escherichia coli MITC95” value worked out at 1.563 µM. In addition, the “Klebsiella pneumoniae MITC95” value in test [3] was found to be 150 µM. In addition, the “Serratia marcescens MITC95” value in test [4] was 2.344 µM.
On to `CN(C)[C@@H]1CCN(Cc2ccc(-c3cccc(S(N)(=O)=O)c3-c3nnn[nH]3)cc2)C1` [Example 347, 4′-{[(3R)-3-(dimethylamino)pyrrolidin-1-yl]methyl}-2-(1H-tetrazol-5-yl)biphenyl-3-sulfonamide], for which the pIC50 in test [1] was 6.73; in test [5] (setting [7]), 6.07; in test [6], 7.91. In test [2], the “Escherichia coli MITC95” value stood at 2.344 µM. Also, in test [3], the “Klebsiella pneumoniae MITC95” value amounted to 200 µM. The “Serratia marcescens MITC95” value in test [4] amounted to 3.125 µM.
For the compound `CN(C)CCCNCc1ccc(-c2cccc(S(N)(=O)=O)c2-c2nnn[nH]2)cc1` [Example 348, 4′-({[3-(dimethylamino)propyl]amino}methyl)-2-(1H-tetrazol-5-yl)biphenyl-3-sulfonamide], the values for the negative logarithm of the IC50 (pIC50) in test [1], in test [5] (setting [7]) and in test [6] were 5.88, 6.07 and 7.59, respectively. For the same compound, in test [2], the “Escherichia coli MITC95” value was 1.172 µM. For the same compound, in test [3], the “Klebsiella pneumoniae MITC95” value was 75 µM. Further, in test [4], the “Serratia marcescens MITC95” value turned out to be 9.375 µM.
On to `CN1CCC(NCc2ccc(-c3cccc(S(N)(=O)=O)c3-c3nnn[nH]3)cc2)C1=O` (stereo not drawn) [Example 349, 4′-{[(1-methyl-2-oxopyrrolidin-3-yl)amino]methyl}-2-(1H-tetrazol-5-yl)biphenyl-3-sulfonamide], for which the negative logarithm of the IC50 (pIC50) is 7.21 in test [1]; 6.20 in test [5] (VIM-1 IC50, VIM-1 enzyme); 8.36 in test [6]. The “Escherichia coli MITC95” value in test [2] amounted to 6.25 µM. Also, in test [3], the “Klebsiella pneumoniae MITC95” value was above 200 µM. The “Serratia marcescens MITC95” value in test [4] was 2.344 µM.
Regarding `NS(=O)(=O)c1cccc(-c2ccc(CNCCn3ccnn3)cc2)c1-c1nnn[nH]1` [Example 350, 2-(1H-tetrazol-5-yl)-4′-({[2-(1H-1,2,3-triazol-1-yl)ethyl]amino}methyl)biphenyl-3-sulfonamide], the pIC50 is 7.40 in test [1], 6.61 in test [5] (setting [7]) and 8.24 in test [6]. The “Escherichia coli MITC95” value in test [2] turned out to be 1.172 µM. Besides, the “Klebsiella pneumoniae MITC95” value in test [3] is above 200 µM. Moreover, in test [4], the “Serratia marcescens MITC95” value worked out at 1.563 µM.
Regarding `CC(O)C1CCN(Cc2ccc(-c3cccc(S(N)(=O)=O)c3-c3nnn[nH]3)cc2)C1` (stereo not drawn) [Example 351, 4′-{[3-(1-hydroxyethyl)pyrrolidin-1-yl]methyl}-2-(1H-tetrazol-5-yl)biphenyl-3-sulfonamide], the figures for the negative-log IC50 (pIC50) in test [1], in test [5] (setting [7]) and in test [6] were 6.48, 6.38 and 7.74, respectively. Also, in test [2], the “Escherichia coli MITC95” value amounted to 1.563 µM. Also, the “Klebsiella pneumoniae MITC95” value in test [3] amounted to 150 µM. The “Serratia marcescens MITC95” value in test [4] amounted to 3.125 µM.
Regarding `CCN1CCC(NCc2ccc(-c3cccc(S(N)(=O)=O)c3-c3nnn[nH]3)cc2)CC1` [Example 352, 4′-{[(1-ethylpiperidin-4-yl)amino]methyl}-2-(1H-tetrazol-5-yl)biphenyl-3-sulfonamide], the negative-log IC50 (pIC50) in test [1] is 6.26; in test [5] (setting [7]) it was 6.04; in test [6], 7.42. Further, the “Escherichia coli MITC95” value in test [2] worked out at 1.563 µM. For the same compound, the “Klebsiella pneumoniae MITC95” value in test [3] is above 200 µM. For the same compound, the “Serratia marcescens MITC95” value in test [4] was determined as 6.25 µM.
In the case of `CC(NCc1ccc(-c2cccc(S(N)(=O)=O)c2-c2nnn[nH]2)cc1)c1nn[nH]n1` (stereo not drawn) [Example 353, 2-(1H-tetrazol-5-yl)-4′-({[1-(2H-tetrazol-5-yl)ethyl]amino}methyl)biphenyl-3-sulfonamide], the negative logarithm of the IC50 (pIC50) in test [1] is 7.55; in test [5] (VIM-1 IC50, VIM-1 enzyme), 6.16; in test [6] it was 8.39. In addition, in test [2], the “Escherichia coli MITC95” value stood at 2.344 µM. The “Klebsiella pneumoniae MITC95” value in test [3] worked out at 100 µM. Moreover, in test [4], the “Serratia marcescens MITC95” value is 1.172 µM.
For `Cc1cc(CNCc2ccc(-c3cccc(S(N)(=O)=O)c3-c3nnn[nH]3)cc2)n[nH]1` [Example 354, 4′-({[(5-methyl-1H-pyrazol-3-yl)methyl]amino}methyl)-2-(1H-tetrazol-5-yl)biphenyl-3-sulfonamide], the pIC50 in test [1] is 7.79; in test [5] (setting [7]), 6.49; in test [6], 8.14. Further, the “Escherichia coli MITC95” value in test [2] stood at 2.344 µM. Moreover, the “Klebsiella pneumoniae MITC95” value in test [3] amounted to 200 µM. The “Serratia marcescens MITC95” value in test [4] amounted to 2.344 µM.
As for `CN(C)C1CCC(NCc2ccc(-c3cccc(S(N)(=O)=O)c3-c3nnn[nH]3)cc2)CC1` (stereo not drawn) [Example 355, 4′-({[4-(dimethylamino)cyclohexyl]amino}methyl)-2-(1H-tetrazol-5-yl)biphenyl-3-sulfonamide], the pIC50 is 6.33 in test [1], 6.06 in test [5] (setting [7]) and 7.85 in test [6]. The “Escherichia coli MITC95” value in test [2] was determined as 1.563 µM. For the same compound, the “Klebsiella pneumoniae MITC95” value in test [3] turned out to be 150 µM. The “Serratia marcescens MITC95” value in test [4] came out at 4.688 µM.
For `CN(C)CCCCNCc1ccc(-c2cccc(S(N)(=O)=O)c2-c2nnn[nH]2)cc1` [Example 356, 4′-({[4-(dimethylamino)butyl]amino}methyl)-2-(1H-tetrazol-5-yl)biphenyl-3-sulfonamide], the pIC50 in test [1] was 5.81; in test [5] (setting [7]), 6.19; in test [6], 7.62. Also, the “Escherichia coli MITC95” value in test [2] was determined as 1.563 µM. In addition, the “Klebsiella pneumoniae MITC95” value in test [3] is 75 µM. The “Serratia marcescens MITC95” value in test [4] was found to be 12.5 µM.
Regarding `C[C@@H](O)[C@H](NCc1ccc(-c2cccc(S(N)(=O)=O)c2-c2nnn[nH]2)cc1)C(=O)O` [Example 357, N-{[3′-sulfamoyl-2′-(1H-tetrazol-5-yl)biphenyl-4-yl]methyl}-L-threonine], the results for the pIC50 in test [1], in test [5] (setting [7]) and in test [6] were 6.74, 6.54 and 7.90, respectively. For the same compound, the “Escherichia coli MITC95” value in test [2] was 3.125 µM. Besides, the “Klebsiella pneumoniae MITC95” value in test [3] amounted to 25 µM. In test [4], the “Serratia marcescens MITC95” value stood at 4.688 µM.
In the case of `CC(NCc1ccc(-c2cccc(S(N)(=O)=O)c2-c2nnn[nH]2)cc1)C(=O)O` (stereo not drawn) [Example 358, N-{[3′-sulfamoyl-2′-(1H-tetrazol-5-yl)biphenyl-4-yl]methyl}alanine], the negative logarithm of the IC50 (pIC50) was 6.54 in test [1]; 6.41 in test [5] (VIM-1 IC50, VIM-1 enzyme); 7.48 in test [6]. Moreover, the “Escherichia coli MITC95” value in test [2] was 3.125 µM. Further, in test [3], the “Klebsiella pneumoniae MITC95” value worked out at 75 µM. For the same compound, the “Serratia marcescens MITC95” value in test [4] is 4.688 µM.
